Data published in the supplement of paper PMC10307832.

What was measured:
Assay in all cases: relative viability (nuclei count vs DMSO), 5 days (fraction); higher = more cells survive
Palbociclib + Foretinib = compound: CC(=O)c1c(C)c2cnc(Nc3ccc(N4CCNCC4)cn3)nc2n(C2CCCC2)c1=O [Palbociclib] + COc1cc2c(Oc3ccc(NC(=O)C4(C(=O)Nc5ccc(F)cc5)CC4)cc3F)ccnc2cc1OCCCN1CCOCC1 [Foretinib] (partner 0.25 µM)
Outline: (§1)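 Lung cancer cell lines in 1536-well plates were dosed by pin tool the day after seeding, either with one drug alone or with a fixed anchor-drug dose plus five library-drug doses (not always all listed) in √10 steps. After 5 days, cells were fixed and their nuclei stained in one step (final 0.05% Triton X-100, 1% formaldehyde, 1 ug/ml Hoechst), then counted on 4× images. Relative viability is the nuclei count in treated wells divided by that in vehicle wells. Values are medians of duplicate plates.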

Palbociclib + Pemetrexed = compound: CC(=O)c1c(C)c2cnc(Nc3ccc(N4CCNCC4)cn3)nc2n(C2CCCC2)c1=O [Palbociclib] + Nc1nc2[nH]cc(CCc3ccc(C(=O)N[C@@H](CCC(=O)O)C(=O)O)cc3)c2c(=O)[nH]1 [Pemetrexed] (partner 0.2 µM)
Outline: as §1

Palbociclib = compound: CC(=O)c1c(C)c2cnc(Nc3ccc(N4CCNCC4)cn3)nc2n(C2CCCC2)c1=O [Palbociclib]
Outline: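 Following overnight incubation at 37 °C, lung cancer cell lines in 1536-well plates were pinned with five library-drug doses (not always all listed) in √10 steps on vehicle-anchored plates. The cells then spent 5 days without medium change before a combined fix, permeabilisation and Hoechst stain, 4× imaging and MetaXpress nuclear counts. Viability is the treated-to-vehicle ratio of nuclei, taken as the median across plates. Only plates with control CV below 25% and at least one doubling passed.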

Cell Line	relative viability (Palbociclib + Foretinib; first compound 0.01 µM)	relative viability (Palbociclib + Foretinib; first compound 0.03162 µM)	relative viability (Palbociclib + Foretinib; first compound 0.1 µM)	relative viability (Palbociclib + Foretinib; first compound 0.3162 µM)	relative viability (Palbociclib + Foretinib; first compound 1 µM)	relative viability (Palbociclib + Pemetrexed; first compound 0.01 µM)	relative viability (Palbociclib + Pemetrexed; first compound 0.1 µM)	relative viability (Palbociclib + Pemetrexed; first compound 0.3162 µM)	relative viability (Palbociclib + Pemetrexed; first compound 1 µM)	relative viability (Palbociclib; 0.01 µM)	relative viability (Palbociclib; 0.1 µM)	relative viability (Palbociclib; 0.3162 µM)	relative viability (Palbociclib; 0.5 µM, anchor plate)	relative viability (Palbociclib; 1 µM)	relative viability (Palbociclib; 0.03162 µM)	relative viability (Palbociclib + Pemetrexed; first compound 0.03162 µM)
NCI-H650	1.05	0.862	0.839	0.824	0.639	0.946	0.7	0.725	0.483	0.971	0.711	0.794	0.327	0.516		
Calu-6	0.879	0.808	0.714	0.672	0.463					1.06	0.833	0.79		0.588	0.919	
LCLC-97TM1	0.861	0.883	0.854	0.67	0.514	0.201	0.168	0.156	0.167	1.03	0.657	0.741	0.225	0.272		
NCI-H441	0.75	0.965	0.571	0.701	0.373	0.276	0.258	0.236	0.257	0.829	0.741	0.741	0.235	0.5	0.655	0.266
NCI-H522						1.2	0.99	1.02	0.932	1.15	0.949	0.915	1.02	0.879	0.616	0.504
NCI-H2347	0.917		0.844		0.546	0.39	0.368	0.413	0.386	1.05	0.87	0.775	0.424	0.684	0.905	0.407
NCI-H2228	0.773	0.782	0.867	0.787	0.781	0.312	0.337	0.341	0.346	1.01	0.937	0.899	0.85	0.795	0.844	0.352
NCI-H1355	1.03	0.894	0.902	0.85	0.715	1.13	0.947	0.912	0.739	0.999	0.884	0.844	0.427	0.62	0.672	0.548
HCC-44						0.626	0.592	0.634	0.666	0.891	0.969	0.96	0.962	1.02	0.82	0.63
NCI-H1650	1.3	0.808	0.954	0.934	0.65	0.373	0.302	0.293	0.231	0.928	0.77	0.726	0.359	0.487	0.734	0.316
NCI-H1944	0.915	0.807	0.768	0.756	0.577	0.598	0.589	0.477	0.367	0.971	0.886	0.885	0.345	0.532	0.762	0.57
COR-L 105	0.841	0.826	0.992	0.595	0.449	1.21	0.778	0.697	0.47	1	0.616	0.651	0.408	0.473	0.724	0.802
NCI-H1648						0.76	0.562	0.582	0.411	1.12	0.667	0.764	0.284	0.336	0.451	0.549
PC-14	0.944	0.865	0.819	0.868	0.733	0.143	0.137	0.148	0.158	1.13	0.841	0.873	0.514	0.503	0.847	0.142
NCI-H23	0.954		1.11	0.962	0.69	0.596	0.492	0.67	0.443	0.973	0.765	0.877	0.538	0.593	0.417	0.694
LOU-NH91	0.957	0.86	0.678	0.646	0.533	0.384	0.462	0.492	0.439	1.09	0.723	0.702	0.529	0.608	0.661	0.396
ChaGo-K-1	0.928	0.797	1.1	0.959	0.977	0.259	0.261	0.257	0.26	1.02	1.04	1.02	0.939	1.02	0.778	
HCC-827	1.03	0.951	0.999	0.977	0.734	0.228	0.257	0.261	0.243	1.04	0.887	0.912	0.483	0.786	0.904	0.251
COR-L23	0.95	0.745	0.911	0.729	0.58	0.183	0.201	0.191	0.203	1.05	0.739	0.808	0.293	0.528	0.886	0.202
SK-MES-1	1.09	0.834	0.781	0.687	0.502	0.857	0.665	0.596	0.363	0.931	0.683	0.648	0.327	0.361	0.852	0.802
NCI-H2170	1.03	0.969	0.955	0.889	0.852	0.269	0.224	0.242	0.222	0.993	0.94	0.894	0.382	0.704	0.856	0.277
LC-2-ad	0.909		0.687	0.687	0.481	0.271	0.318	0.392	0.363	0.902	0.816	0.73	0.479	0.518		0.289
NCI-H1793	0.689		0.713	0.617	0.355	0.975	0.676	0.617	0.339	1.02	0.77	0.682	0.325	0.327	0.54	0.653

Cell Line	relative viability (Palbociclib + Foretinib; first compound 0.01 µM)	relative viability (Palbociclib + Foretinib; first compound 0.03162 µM)	relative viability (Palbociclib + Foretinib; first compound 0.1 µM)	relative viability (Palbociclib + Foretinib; first compound 0.3162 µM)	relative viability (Palbociclib + Foretinib; first compound 1 µM)	relative viability (Palbociclib + Pemetrexed; first compound 0.01 µM)	relative viability (Palbociclib + Pemetrexed; first compound 0.1 µM)	relative viability (Palbociclib + Pemetrexed; first compound 0.3162 µM)	relative viability (Palbociclib + Pemetrexed; first compound 1 µM)	relative viability (Palbociclib; 0.01 µM)	relative viability (Palbociclib; 0.1 µM)	relative viability (Palbociclib; 0.3162 µM)	relative viability (Palbociclib; 0.5 µM, anchor plate)	relative viability (Palbociclib; 1 µM)	relative viability (Palbociclib; 0.03162 µM)	relative viability (Palbociclib + Pemetrexed; first compound 0.03162 µM)
NCI-H1915	1.04	0.968	1.06	0.95	0.905	0.494	0.446	0.413	0.331	1.01	0.973	0.902	0.527	0.756	0.695	
NCI-H322M	0.977	0.776	0.616	0.641	0.414	0.604	0.651	0.573	0.362	0.888	0.633	0.648	0.492	0.502	0.825	0.499
NCI-H1792						0.984	0.438	0.427	0.264	0.987	0.696	0.612	0.678	0.383	0.8	0.557
PC-3 [JPC-3]	1.1	0.955	0.884	0.855	0.64	1.14	0.952	0.878	0.428	1.08	0.855	0.761	0.536	0.59	0.895	1.06
NCI-H2405	1.02	0.972	0.884	0.822	0.675	1.06	0.941	0.799	0.523	0.996	0.842	0.889	0.52	0.654	0.797	1.14
NCI-H1563	0.972	0.89	0.821	0.853	0.8	0.836	0.746	0.795	0.629	0.988	0.85	0.869		0.853	0.896	0.729
EPLC-272H	0.794		0.572	0.689	0.435	0.278	0.408	0.539	0.512	1.07	0.798	0.828	0.33	0.456		0.322
EMC-BAC-2	1	0.931	0.804	0.821	0.61	0.449	0.427	0.417	0.428	0.999	0.791	0.736	0.514	0.589	0.749	0.476
NCI-H3122	0.854	0.936	0.892	0.7	0.553	0.205	0.192	0.186	0.188	0.977	0.866	0.797	0.192	0.456	0.944	0.184
ABC-1	0.963	0.808	0.852	0.763	0.709					1.02	0.81	0.785	0.755	0.686	0.853	
201T	0.932	0.841	0.72	0.77	0.419	0.343	0.358	0.372	0.283	1.02	0.9	0.867	0.349	0.571	0.863	0.342
NCI-H1734	0.831	0.683	0.608	0.686	0.503	0.423	0.404	0.407	0.4	0.951	0.75	0.659	0.345	0.538	0.592	0.466
NCI-H1299	1.05	0.996	1.02	0.942	0.754					0.981	0.906	0.839		0.729	0.977	
HCC-78	0.54	0.453	0.481	0.509	0.364	0.894	0.935	0.942	0.943	0.998	0.698	0.703	0.477	0.385	0.756	0.88
EKVX	0.907	0.412	0.748	0.757	0.463	0.392	0.353	0.317	0.243	1.12	0.766	0.882	0.394	0.544	0.733	
BEN	0.729	0.422	0.607	0.556	0.376	0.894	0.609	0.585	0.38	1.04	0.778	0.814	0.487	0.476	0.813	0.596
HARA	0.828		0.763	0.534	0.332	0.253	0.274	0.262	0.212	1.1	0.746	0.652	0.262	0.392		0.265
HCC-15	1		0.902	0.892	0.716	0.217	0.246	0.247	0.227	0.986	0.915	0.828	0.717	0.732		
A549	0.925	0.831	0.754	0.635	0.43					0.983	0.68	0.692		0.448	0.71	
NCI-H727	0.879	0.727	0.636	0.596	0.5					0.814	0.653	0.659	0.625	0.564	0.786	
NCI-H1703	0.259	0.308	0.287	0.28	0.292					0.912	0.842	0.444		0.345	0.676	
IA-LM	1.06	0.959	0.862	0.514	0.313					0.901	0.559	0.428		0.162	0.54	
